Assay results from ChEMBL document CHEMBL1136309, “Synthesis and SAR studies of potent HIV protease inhibitors containing novel dimethylphenoxyl acetates as P2 ligands” (Bioorg Med Chem Lett, 2003).

Tests used:
[1] = molecular target: Human immunodeficiency virus type 1 protease (Human immunodeficiency virus 1) (UniProt Q72874); test: Inhibitory activity against HIV protease at a compound concentration of 0.5 nM in MT-4 cells; type: cell-based; settings: MT4
[2] = tested on: Human immunodeficiency virus 1; test: Antiviral activity was tested in absence of human serum in MT-4 cells (in vitro); type: functional, organism-based; settings: Human immunodeficiency virus 1, MT4
[3] = tested on: Human immunodeficiency virus 1; test: Antiviral activity was tested in presence of 50% human serum in MT-4 cells (in vitro); type: functional, organism-based; settings: Human immunodeficiency virus 1, MT4
[4] = molecular target: Human immunodeficiency virus type 1 protease (Human immunodeficiency virus 1) (UniProt Q72874); test: Inhibitory activity against HIV protease at a compound concentration of 12 nM in MT-4 cells; type: cell-based; settings: MT4
[5] = molecular target: Human immunodeficiency virus type 1 protease (Human immunodeficiency virus 1) (UniProt Q72874); test: Inhibitory activity against HIV protease at a compound concentration of 1 nM in MT-4 cells; type: cell-based; settings: MT4
[6] = molecular target: Human immunodeficiency virus type 1 protease (Human immunodeficiency virus 1) (UniProt Q72874); test: Inhibitory activity against HIV protease at a compound concentration of 2.4 nM in MT-4 cells; type: cell-based; settings: MT4
[7] = molecular target: Human immunodeficiency virus type 1 protease (Human immunodeficiency virus 1) (UniProt Q72874); test: Inhibitory activity against HIV protease at a compound concentration of 31 nM in MT-4 cells; type: cell-based; settings: MT4

Row | SMILES | inhibition [1] | EC50 [2] | EC50 [3] | inhibition [4] | inhibition [5] | inhibition [6] | inhibition [7]
1 | Cc1cc(C)c(OCC(=O)N[C@@H](Cc2ccccc2)C[C@H](O)[C@H](Cc2ccccc2)NC(=O)O[C@H]2COC3OCCC32)c(C)c1N (stereo not given in full) | 74% | 23 nM | 117 nM | – | – | – | –
2 | Cc1ncnc(C)c1OCC(=O)N[C@@H](Cc1ccccc1)C[C@H](O)[C@H](Cc1ccccc1)NC(=O)O[C@H]1COC2OCCC21 (stereo not given in full) | 56% | 815 nM | 1390 nM | – | – | – | –
3 | Cc1ccc(N)c(C)c1OCC(=O)N[C@@H](Cc1ccccc1)C[C@H](O)[C@H](Cc1ccccc1)NC(=O)O[C@H]1COC2OCCC21 (stereo not given in full) | 87% | 5 nM | 35 nM | – | – | – | –
4 | Cc1cccc(C)c1OCC(=O)N[C@@H](Cc1ccccc1)[C@@H](O)C[C@H](Cc1ccccc1)NC(=O)OC1COC2OCCC12 (stereo not given in full) | 91% | 61 nM | 272 nM | – | – | – | –
5 | Cc1cc(C)c(OCC(=O)N[C@@H](Cc2ccccc2)C[C@H](O)[C@H](Cc2ccccc2)NC(=O)O[C@H]2COC3OCCC32)c(C)c1 (stereo not given in full) | 82% | 205 nM | 479 nM | – | – | – | –
6 | Cc1cc(NS(C)(=O)=O)cc(C)c1OCC(=O)N[C@@H](Cc1ccccc1)[C@@H](O)C[C@H](Cc1ccccc1)NC(=O)O[C@H]1COC2OCCC21 (stereo not given in full) | – | – | – | 50% | – | – | –
7 | Cc1cc(F)cc(C)c1OCC(=O)N[C@@H](Cc1ccccc1)C[C@H](O)[C@H](Cc1ccccc1)NC(=O)O[C@H]1COC2OCCC21 (stereo not given in full) | 69% | 268 nM | 866 nM | – | – | – | –
8 | Cc1cc(N)cc(C)c1OCC(=O)N[C@@H](Cc1ccccc1)C[C@H](O)[C@H](Cc1ccccc1)NC(=O)OC1COC2OCCC12 (stereo not given in full) | 70% | 12 nM | 67 nM | – | – | – | –
9 | Cc1cccc(C)c1NCC(=O)N[C@@H](Cc1ccccc1)C[C@H](O)[C@H](Cc1ccccc1)NC(=O)O[C@H]1COC2OCCC21 (stereo not given in full) | 69% | 253 nM | 2150 nM | – | – | – | –
10 | Cc1cc([N+](=O)[O-])cc(C)c1OCC(=O)N[C@@H](Cc1ccccc1)C[C@H](O)[C@H](Cc1ccccc1)NC(=O)OC1COC2OCCC12 (stereo not given in full) | 53% | 927 nM | 8110 nM | – | – | – | –
11 | Cc1cc(N)cc(C)c1OCC(=O)N[C@@H](Cc1ccccc1)C[C@H](O)[C@H](Cc1ccccc1)NC(=O)O[C@@H]1COC2OCCC21 (stereo not given in full) | 60% | 47 nM | 129 nM | – | – | – | –
12 | Cc1cc(N)cc(C)c1SCC(=O)N[C@@H](Cc1ccccc1)C[C@H](O)[C@H](Cc1ccccc1)NC(=O)O[C@H]1COC2OCCC21 (stereo not given in full) | – | 5790 nM | 1040 nM | – | 56% | – | –
13 | Cc1cc2[nH]nnc2c(C)c1OCC(=O)N[C@@H](Cc1ccccc1)C[C@H](O)[C@H](Cc1ccccc1)NC(=O)O[C@H]1COC2OCCC21 (stereo not given in full) | 67% | 188 nM | 1880 nM | – | – | – | –
14 | CNC(=O)c1cc(C)c(OCC(=O)N[C@@H](Cc2ccccc2)C[C@H](O)[C@H](Cc2ccccc2)NC(=O)O[C@H]2COC3OCCC32)c(C)c1 (stereo not given in full) | – | 220 nM | 533 nM | – | – | – | –
15 | Cc1ccnc(C)c1OCC(=O)N[C@@H](Cc1ccccc1)C[C@H](O)[C@H](Cc1ccccc1)NC(=O)O[C@H]1COC2OCCC21 (stereo not given in full) | 49% | 184 nM | 438 nM | – | – | – | –
16 | COc1cccc(C)c1OCC(=O)N[C@@H](Cc1ccccc1)C[C@H](O)[C@H](Cc1ccccc1)NC(=O)O[C@H]1COC2OCCC21 (stereo not given in full) | 74% | 353 nM | 1380 nM | – | – | – | –
17 | Cc1cc(N2COCC2=O)cc(C)c1OCC(=O)N[C@@H](Cc1ccccc1)C[C@H](O)[C@H](Cc1ccccc1)NC(=O)O[C@H]1COC2OCCC21 (stereo not given in full) | 74% | 214 nM | 930 nM | – | – | – | –
18 | Cc1ccccc1OCC(=O)N[C@@H](Cc1ccccc1)C[C@H](O)[C@H](Cc1ccccc1)NC(=O)O[C@H]1COC2OCCC21 (stereo not given in full) | 84% | – | – | – | – | – | –
19 | Cc1ccc(O)c(C)c1OCC(=O)N[C@@H](Cc1ccccc1)C[C@H](O)[C@H](Cc1ccccc1)NC(=O)O[C@H]1COC2OCCC21 (stereo not given in full) | 92% | 7 nM | 98 nM | – | – | – | –

Row | SMILES | inhibition [1] | EC50 [2] | EC50 [3] | inhibition [4] | inhibition [5] | inhibition [6] | inhibition [7]
20 | Cc1cc2nsnc2c(C)c1OCC(=O)N[C@@H](Cc1ccccc1)C[C@H](O)[C@H](Cc1ccccc1)NC(=O)O[C@H]1COC2OCCC21 (stereo not given in full) | 71% | 621 nM | 5650 nM | – | – | – | –
21 | Cc1cc(N)cc(C)c1S(=O)(=O)CC(=O)N[C@@H](Cc1ccccc1)C[C@H](O)[C@H](Cc1ccccc1)NC(=O)O[C@H]1COC2OCCC21 (stereo not given in full) | – | 10300 nM | 61800 nM | 50% | – | – | –
22 | Cc1cccc(C)c1N(C)CC(=O)N[C@@H](Cc1ccccc1)C[C@H](O)[C@H](Cc1ccccc1)NC(=O)O[C@H]1COC2OCCC21 (stereo not given in full) | – | 2910 nM | 30200 nM | – | – | 50% | –
23 | Cc1cccc(C)c1OCC(=O)N[C@@H](Cc1ccccc1)C[C@H](O)[C@H](Cc1ccccc1)NC(=O)O[C@H]1COC2OCCC21 (stereo not given in full) | 87% | 41 nM | 300 nM | – | – | – | –
24 | CCOC(=O)c1cc(C)c(OCC(=O)N[C@@H](Cc2ccccc2)C[C@H](O)[C@H](Cc2ccccc2)NC(=O)O[C@H]2COC3OCCC32)c(C)c1 (stereo not given in full) | 84% | 106 nM | 3220 nM | – | – | – | –
25 | Cc1cc(N)c(N)c(C)c1OCC(=O)N[C@@H](Cc1ccccc1)C[C@H](O)[C@H](Cc1ccccc1)NC(=O)O[C@H]1COC2OCCC21 (stereo not given in full) | 76% | 644 nM | 1480 nM | – | – | – | –
26 | Cc1cc2[nH]c(O)nc2c(C)c1OCC(=O)N[C@@H](Cc1ccccc1)C[C@H](O)[C@H](Cc1ccccc1)NC(=O)O[C@H]1COC2OCCC21 (stereo not given in full) | 85% | 972 nM | 3110 nM | – | – | – | –
27 | Cc1cc(O)cc(C)c1OCC(=O)N[C@@H](Cc1ccccc1)C[C@H](O)[C@H](Cc1ccccc1)NC(=O)O[C@H]1COC2OCCC21 (stereo not given in full) | 82% | 32 nM | 76 nM | – | – | – | –
28 | Cc1cccc(CO)c1OCC(=O)N[C@@H](Cc1ccccc1)C[C@H](O)[C@H](Cc1ccccc1)NC(=O)O[C@H]1COC2OCCC21 (stereo not given in full) | 88% | 37 nM | 197 nM | – | – | – | –
29 | Cc1cc(C(=O)N(C)C)cc(C)c1OCC(=O)N[C@@H](Cc1ccccc1)C[C@H](O)[C@H](Cc1ccccc1)NC(=O)O[C@H]1COC2OCCC21 (stereo not given in full) | – | 2310 nM | 11900 nM | – | – | – | –
30 | Cc1cc(OCCN2CCOCC2)cc(C)c1OCC(=O)N[C@@H](Cc1ccccc1)C[C@H](O)[C@H](Cc1ccccc1)NC(=O)O[C@H]1COC2OCCC21 (stereo not given in full) | 77% | 24 nM | 340 nM | – | – | – | –
31 | Cc1cc(C(N)=O)cc(C)c1OCC(=O)N[C@@H](Cc1ccccc1)C[C@H](O)[C@H](Cc1ccccc1)NC(=O)O[C@H]1COC2OCCC21 (stereo not given in full) | – | 255 nM | 987 nM | – | – | – | –
32 | O=C(COc1ccccc1)N[C@@H](Cc1ccccc1)C[C@H](O)[C@H](Cc1ccccc1)NC(=O)O[C@H]1COC2OCCC21 (stereo not given in full) | 61% | – | – | – | – | – | –
33 | Cc1cc(N(C)C)cc(C)c1OCC(=O)N[C@@H](Cc1ccccc1)C[C@H](O)[C@H](Cc1ccccc1)NC(=O)O[C@H]1COC2OCCC21 (stereo not given in full) | 43% | 160 nM | 2070 nM | – | – | – | –
34 | Cc1cc(Cl)c(N)c(C)c1OCC(=O)N[C@@H](Cc1ccccc1)C[C@H](O)[C@H](Cc1ccccc1)NC(=O)O[C@H]1COC2OCCC21 (stereo not given in full) | 86% | 62 nM | 659 nM | – | – | – | –
35 | Cc1cc(N)cc(C)c1OCC(=O)N[C@@H](Cc1ccccc1)C[C@H](O)[C@H](Cc1ccccc1)NC(=O)O[C@H]1COC2OCCC21 (stereo not given in full) | 78% | 9 nM | 31 nM | – | – | – | –
36 | CNc1cc(C)c(OCC(=O)N[C@@H](Cc2ccccc2)C[C@H](O)[C@H](Cc2ccccc2)NC(=O)OC2COC3OCCC23)c(C)c1 (stereo not given in full) | 64% | 112 nM | 507 nM | – | – | – | –
37 | Cc1cc2oc(O)nc2c(C)c1OCC(=O)N[C@@H](Cc1ccccc1)C[C@H](O)[C@H](Cc1ccccc1)NC(=O)O[C@H]1COC2OCCC21 (stereo not given in full) | 61% | 160 nM | 501 nM | – | – | – | –
38 | Cc1cc(N)cc(C)c1[S+]([O-])CC(=O)N[C@@H](Cc1ccccc1)C[C@H](O)[C@H](Cc1ccccc1)NC(=O)O[C@H]1COC2OCCC21 (stereo not given in full) | – | 37500 nM | 98400 nM | – | – | – | 50%
